Ends that are not written are not given here.
Assays:
MTT test = assay type: cell-based; details: human, serum-free RPMI-1640, overnight incubation, mean ± SD of three independent tests, read-out: IC50 of cytotoxic action toward human PBMC
Procedure: Cytotoxic activity of peptides toward various types of eukaryotic cells was assessed using the standard MTT [3-(4,5-Dimethylthiazol-2-yl)-2,5-diphenyltetrazolium bromide] test ([Mosmann, 1983]). Human peripheral blood mononuclear cells (PBMC) were isolated from the peripheral blood of healthy donors. Whole heparinized blood diluted 3-fold with sterile PBS was carefully layered upon the 5 ml of the sterile Ficoll-400 (Pharmacia, Sweden) with a density of 1.077 in a sterile 50 ml conical tube and then centrifuged at 600 g and 4°C for 40 min. The mononuclear “ring” remaining above the Ficoll was collected using a transfer pipette and placed in another tube. Cells were washed twice with sterile PBS, resuspended in RPMI-1640 culture medium and immediately used for the test. Tumor cell lines were purchased from Biolot (Saint Petersburg, Russia) and cultured at 37°C and 5% CO2 in RPMI-1640 medium (Biolot, Saint Petersburg, Russia) supplemented with 10% fetal bovine serum, glutamine, and penicillin-streptomycin combination. For the experiments, cells were washed from the medium they were growing in and resuspended in serum- and antibiotic-free RPMI-1640. Cells were added at not less than 2 × 10^4 per well in sterile flat bottom 96-well microplates containing serial dilutions of tested peptides in RPMI-1640. For the positive control (100% viable cells), RPMI-1640 medium was used instead of the peptide solution, whereas for the negative control (0% viable cells) medium replaced both peptide and cells. Test plates were incubated at 37°C and 5% CO2 overnight, after which MTT metabolic marker in PBS (5 mg/ml) was introduced into each well. After an additional 4 h incubation, the reaction was stopped by adding isopropanol supplemented with 0.04 M HCl, in which the formazan crystals (formed as a result of MTT reduction in presence of metabolically active cells) were dissolved, and OD at 540 nm was measured. Background absorbance at 690 nm was subtracted from the results to countervail any unspecific OD fluctuations. The % of surviving cells was found as:
(2) Survival(%)=(ODsample−OD0% viable)/(OD100% viable−OD0% viable)×100%,
where ODsample, OD0% viable, and OD100% viable are respectively values of the OD at 540 nm minus the OD at 690 nm for the test sample and negative or positive controls. IC50 toxicity values were determined by nonlinear regression analysis of the dose response curves using Sigma Plot 11 (Systat Software Inc., USA). The experiments were repeated three times, with 3 parallels of samples and 4–6 parallels of controls each time.

U937 = assay: MTT test; assay type: cell-based, human; details: serum-free RPMI-1640, overnight incubation, mean ± SD of three independent tests, read-out: IC50 of cytotoxic action toward U937
Procedure: Cytotoxic activity of peptides toward various types of eukaryotic cells was assessed using the standard MTT [3-(4,5-Dimethylthiazol-2-yl)-2,5-diphenyltetrazolium bromide] test ([Mosmann, 1983]). Human peripheral blood mononuclear cells (PBMC) were isolated from the peripheral blood of healthy donors. Whole heparinized blood diluted 3-fold with sterile PBS was carefully layered upon the 5 ml of the sterile Ficoll-400 (Pharmacia, Sweden) with a density of 1.077 in a sterile 50 ml conical tube and then centrifuged at 600 g and 4°C for 40 min. The mononuclear “ring” remaining above the Ficoll was collected using a transfer pipette and placed in another tube. Cells were washed twice with sterile PBS, resuspended in RPMI-1640 culture medium and immediately used for the test. Tumor cell lines were purchased from Biolot (Saint Petersburg, Russia) and cultured at 37°C and 5% CO2 in RPMI-1640 medium (Biolot, Saint Petersburg, Russia) supplemented with 10% fetal bovine serum, glutamine, and penicillin-streptomycin combination. For the experiments, cells were washed from the medium they were growing in and resuspended in serum- and antibiotic-free RPMI-1640. Cells were added at not less than 2 × 10^4 per well in sterile flat bottom 96-well microplates containing serial dilutions of tested peptides in RPMI-1640. […] After an additional 4 h incubation, the reaction was stopped by adding isopropanol supplemented with 0.04 M HCl, in which the formazan crystals (formed as a result of MTT reduction in presence of metabolically active cells) were dissolved, and OD at 540 nm was measured. Background absorbance at 690 nm was subtracted from the results to countervail any unspecific OD fluctuations. […]
where ODsample, OD0% viable, and OD100% viable are respectively values of the OD at 540 nm minus the OD at 690 nm for the test sample and negative or positive controls. IC50 toxicity values were determined by nonlinear regression analysis of the dose response curves using Sigma Plot 11 (Systat Software Inc., USA). […]

E. coli ML-35p = assay: Broth microdilution assay (MIC); assay type: cell-based, Escherichia coli; details: 50% MH broth/50% 10 mM Na-P buffer pH 7.4 with 0.1% BSA, 1×10^6 CFU/ml, 20 h, median of 3–6 independent experiments in triplicate
Procedure: The minimal inhibitory concentrations (MIC) of peptides were determined using microdilution assay in Müller–Hinton (MH) broth in general accordance with the guidelines of the European Committee for Antimicrobial Susceptibility Testing. Test plates were additionally pretreated with 0.1% bovine serum albumin (BSA) in distilled H2O (incubated for 1 h at 37°C) to reduce possible non-specific binding of peptides to the plastic surface of the wells, as proposed for AMP activity measuring ([Tossi et al., 1997]; [Wiegand et al., 2008]). Two-fold serial dilutions of peptides starting with 2 × stock concentration were prepared in sterile 10 mM sodium phosphate (Na-P) buffer, pH 7.4, with 0.1% BSA. Thus, final solutions contained 50% of Na-P diluted peptide and 50% of MH broth with bacteria. Bacteria for testing were grown overnight, then transferred into a fresh portion of 2.1% MH medium and additionally incubated for 2–3 h to obtain bacterial culture in its mid-logarithmic growth phase, which was diluted down to the final concentration of 1 × 10^6 CFU/ml. Concentration of bacteria in growth medium was calculated based on its absorbance at 620 nm.
After 20 h of incubation of AMPs with bacteria MICs were determined as lowest concentrations of AMPs completely preventing the visible growth of bacteria. Tests were performed in 60-well Terasaki microplates (10 µl end volume, V-shaped bottom; Sarstedt, Germany); dilutions in each test were made in triplicate. Final MIC values were calculated as medians based on the results of 3–5 independent experiments.

P. aeruginosa MDR 522/17 [1] = assay type: cell-based, Pseudomonas aeruginosa; details: MDR 522/17, 24 h
Procedure: (§1) Quantification of the biofilms forming in the presence of various concentrations of tested AMPs was performed using the crystal violet assay according to general guidelines ([Merritt et al., 2006]). Tests were performed in polystyrene 96-well plates with U-shaped bottom. Peptides were serially diluted in a bacterial growth medium (MH for A. baumannii or TSB for P. aeruguinosa) in a volume of 50 μl per well. Overnight cultures of tested bacteria in a stationary phase of growth were 50 times diluted and introduced into the experimental wells at the same volume of 50 μl. Samples were incubated for 24 h at 37°C. The content of the wells was then shacked out, the plates were gently washed from unattached planktonic bacteria in still water (poured into a large enough vessel); bacterial cells and matrix components adhered to the walls of the wells were stained with a 0.1% aqueous solution of crystal violet dye: 125 μl of dye solution was put into each well and incubated at room temperature for 10 min. After staining dye solution was removed, the plates were washed with clean water and allowed to air-dry. Finally, the bound dye was redissolved by adding 200 μl of 30% acetic acid into each well, incubating it for 15 min at room temperature, and then thoroughly mixing the content of the wells by pipetting. One hundred and twenty five microliters of crystal violet extract from each well were transferred into a flat-bottomed microtiter plate, and the optical density was measured at a wavelength of 560–595 nm (depending on the maximum of absorption in a particular experiment). Experimental samples were made in quadruplicates, and there were 8–9 repeats of control samples without peptides in each test. Presented results are medians calculated based on 3 independent experiments.

[2] = tested on: K. pneumoniae ESBL 344/17; set-up: key to Susceptibility category: R – resistant; I – intermediate; S – susceptible; details: initial susceptibility testing of the clinical isolate; ref supplying institutions; cited from earlier work;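 further: each antibiotic is scored as S (susceptible), I (intermediate) or R (resistant), with its MIC listed alongside, in a susceptibility profile of the clinical isolate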
A. baumannii 7226/16 [3] = tested on: A. baumannii 7226/16; set-up: key to Susceptibility category: R – resistant; I – intermediate; S – susceptible; details: initial susceptibility testing of the clinical isolate; ref supplying institutions; cited from earlier work
Description: page 1: Supplementary Material Supplementary Table 1. Susceptibility profiles of tested clinical isolates of bacteria. Gram-negative: Gram-positive: antibiotic E. coli A. baumannii P. aeruginosa K. pneumoniae antibiotic S. aureus ESBL 521/17 7226/16 MDR 522/17 ESBL 344/17 1399/17 AMP* R [≥32] R [≥32 ] R [≥32 ] R [≥32] AMP* R [≥32 ] AMC R [16] - - S [≤2] AMC - CTX R [≥64] - - S [≤1] AMX - CAZ R [≥64] - R [≥64] S [≤1] AZM R [≥4] FEP R [≥64] - R [≥64] S [≤1] VAN S [≤2] ATM R [≥64] - - S [≤1] DOX I [2] IPM S [≤1] R [≥16] I [8] S [≤1] CLI I [2] MEM S [≤0.25 ] R [≥32 ] R [≥16] S [≤0.25] MEM I [4] AM ...

E. coli ESBL 521/17 = tested on: E. coli ESBL 521/17; set-up: key to Susceptibility category: R – resistant; I – intermediate; S – susceptible; details: initial susceptibility testing of the clinical isolate; ref supplying institutions; cited from earlier work
P. aeruginosa MDR 522/17 [4] = tested on: P. aeruginosa MDR 522/17; set-up: key to Susceptibility category: R – resistant; I – intermediate; S – susceptible; details: initial susceptibility testing of the clinical isolate; ref supplying institutions; cited from earlier work
S. aureus 1399/17 = tested on: S. aureus 1399/17; set-up: key to Susceptibility category: R – resistant; I – intermediate; S – susceptible; details: initial susceptibility testing of the clinical isolate; ref supplying institutions; cited from earlier work
A. baumannii 7226/16 [5] = assay type: cell-based, Acinetobacter baumannii; details: 7226/16, 24 h, 2
Procedure: as §1, with “After staining dye solution was removed, the plates were washed with clean water and allowed to air-dry. Finally, the bound dye was redissolved by adding 200 μl of 30% acetic acid into each well, incubating it for 15 min at room temperature, and then thoroughly mixing the content of the wells by pipetting.” left out, “Experimental samples were made in quadruplicates, and there were 8–9 repeats of control samples without peptides in each test.” left out

Compound | IC50 (MTT test) [µM] | MIC (E. coli ML-35p) [µM] | MIC of antibiotic [2] [µg/mL] | Susceptibility category [2] | MIC of antibiotic (A. baumannii 7226/16 [3]) [µg/mL] | Susceptibility category (A. baumannii 7226/16 [3]) | MIC of antibiotic (E. coli ESBL 521/17) [µg/mL] | Susceptibility category (E. coli ESBL 521/17) | MIC of antibiotic (P. aeruginosa MDR 522/17 [4]) [µg/mL] | Susceptibility category (P. aeruginosa MDR 522/17 [4]) | MIC of antibiotic (S. aureus 1399/17) [µg/mL] | Susceptibility category (S. aureus 1399/17) | also measured
RFRLPFRRPPIRIHPPPFY-NH2 [ChBac3.4(1-19)-NH2] | > 64 | 4 | – | – | – | – | – | – | – | – | – | – | IC50 (U937): > 64 µM
RFRRFRLPFRRIHPPPFVRIHPPPFYRRFL-NH2 [RFR-ChBac3.4-1-NH2] | 18.3 ± 4.1 | 4 | – | – | – | – | – | – | – | – | – | – | Biofilm inhibition (P. aeruginosa MDR 522/17 [1]): 62 ± 1.5%
RIHPPPFYPPFRRFL-NH2 [ChBac3.4 (12-26)] | 43.3 ± 7.7 | 64 | – | – | – | – | – | – | – | – | – | – | –
RFRLPFRRPWPIRIHPPPFYPWPFRRFL [ChBac3.4-2-COOH] | 20.2 ± 4.5 | 4 | – | – | – | – | – | – | – | – | – | – | –
NCC[C@H](O)C(=O)N[C@@H]1C[C@H](N)[C@@H](O[C@H]2O[C@H](CN)[C@@H](O)[C@H](O)[C@H]2O)[C@H](O)[C@H]1O[C@H]1O[C@H](CO)[C@@H](O)[C@H](N)[C@H]1O [AMK, amikacin] | – | – | ≤ 2 | S | 8 | I | 16 | I | 4 | I | ≥ 64 | R | –
CC[C@H]1OC(=O)[C@H](C)[C@@H](O[C@H]2C[C@@](C)(OC)[C@@H](O)[C@H](C)O2)[C@H](C)[C@@H](O[C@@H]2O[C@H](C)C[C@H](N(C)C)[C@H]2O)[C@](C)(O)C[C@@H](C)C(=O)[C@H](C)[C@@H](O)[C@]1(C)O [ERY, erythromycin] | – | – | ≥ 32 | R | ≥ 32 | R | ≥ 32 | R | ≥ 32 | R | ≥ 32 | R | –
RFRRFRLPFRRPPIRIH-NH2 [RFR-ChBac3.4 (1-14)-NH2] | > 64 | 1 | – | – | – | – | – | – | – | – | – | – | IC50 (U937): > 64 µM; Biofilm inhibition (A. baumannii 7226/16 [5]): 53 ± 3%; Biofilm inhibition (P. aeruginosa MDR 522/17 [1]): 79 ± 5%
RFRLPFRRPPIRIHPPPFYPPFRRFL [ChBac3.4-COOH] | 36.2 ± 6.9 | 2 | – | – | – | – | – | – | – | – | – | – | –
C[C@@H](O)[C@H]1C(=O)N2C(C(=O)O)=C(S[C@@H]3CN[C@H](C(=O)N(C)C)C3)[C@H](C)[C@H]12 [MEM, meropenem] | – | – | ≤ 0.25 | S | ≥ 32 | R | ≤ 0.25 | S | ≥ 16 | R | 4 | I | –
RFRLPFRRPPIRIH-NH2 [ChBac3.4(1-14)-NH2] | > 64 | 8 | – | – | – | – | – | – | – | – | – | – | IC50 (U937): > 64 µM
CNC(C)C1CCC(N)C(OC2C(N)CC(N)C(OC3OCC(C)(O)C(NC)C3O)C2O)O1 (stereo not shown) [GEN, gentamicin] | – | – | ≤ 1 | S | ≥ 16 | R | ≤ 1 | S | ≥ 16 | R | ≥ 32 | R | –
RFRLPFRRPPIRIPPPFYPPFRRFL-NH2 [ChBac3.4(Н-)] | 34.7 ± 7.3 | 4 | – | – | – | – | – | – | – | – | – | – | –
RFRLPFRRIHPPPFVRIHPPPFYRRFL-NH2 [ChBac3.4-1-NH2] | 12.1 ± 0.8 | 4 | – | – | – | – | – | – | – | – | – | – | –

Source: publication PMC7604311, “Caprine Bactenecins as Promising Tools for Developing New Antimicrobial and Antitumor Drugs” (Frontiers in Cellular and Infection Microbiology, 2020)
